Assay results: ChEMBL document CHEMBL6134780, “Halogenated retinoid derivatives as dual RARα and RXRα modulators for treating acute promyelocytic leukemia cells” (Eur J Med Chem, 2024)
The source made the active and inactive calls. No cut-off for these calls is given here.

Key:
NB-4 [1] = experiment: Cell cycle arrest in human NB4 cells transfected with pLVX-shRXRalpha plasmid assessed as accumulation of cells at G0/G1 phase at 2 uM incubated for 12 hrs by DAPI staining based flow cytometric analysis (reference value: 53 %); type: functional
NB-4 [2] = experiment: Cell cycle arrest in human NB4 cells transfected with pLVX-shPML-RARalpha plasmid assessed as accumulation of cells at S phase at 2 uM incubated for 12 hrs by DAPI staining based flow cytometric analysis (reference value: 19 %); type: functional
Homo sapiens = organism: Homo sapiens; experiment: Binding affinity to N-terminal His-tagged human RARalpha LBD R276E mutant extracted from Escherichia coli BL21 (DE3) cells by ITC analysis
[3] = Cell cycle arrest in human ATRA-resistant NB4-LR2 cells assessed as accumulation of cells at G0/G1 phase at 2 uM incubated for 3 hrs by DAPI staining based flow cytometric analysis (reference value: 57 %); type: functional
[4] = biological target: T1, Retinoic acid receptor alpha (Homo sapiens, UniProt P10276); experiment: Binding affinity to N-terminal His-tagged human RARalpha LBD extracted from Escherichia coli BL21 (DE3) cells assessed as dissociation constant by ITC analysis
T1 sequence (P10276 whole entry): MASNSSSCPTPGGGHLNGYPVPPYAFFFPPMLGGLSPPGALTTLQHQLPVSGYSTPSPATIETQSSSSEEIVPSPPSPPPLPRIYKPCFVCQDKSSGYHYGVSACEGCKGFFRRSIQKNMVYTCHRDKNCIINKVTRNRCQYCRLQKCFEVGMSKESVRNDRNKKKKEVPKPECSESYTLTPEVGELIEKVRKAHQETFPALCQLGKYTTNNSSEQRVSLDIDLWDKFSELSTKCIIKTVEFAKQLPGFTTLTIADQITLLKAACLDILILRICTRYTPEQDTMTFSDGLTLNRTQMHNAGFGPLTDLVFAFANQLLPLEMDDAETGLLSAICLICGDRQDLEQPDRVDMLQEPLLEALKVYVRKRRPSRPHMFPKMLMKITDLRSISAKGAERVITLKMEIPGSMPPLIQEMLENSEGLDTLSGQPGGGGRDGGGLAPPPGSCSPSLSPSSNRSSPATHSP

[5] = Cell cycle arrest in human ATRA-resistant NB4-LR2 cells assessed as accumulation of cells at sub-G1 phase at 2 uM incubated for 3 hrs by DAPI staining based flow cytometric analysis (reference value: 9 %); type: functional
NB-4 [6] = experiment: Cell cycle arrest in human NB4 cells transfected with pLVX-shPML-RARalpha plasmid assessed as accumulation of cells at G0/G1 phase at 1 uM incubated for 12 hrs by DAPI staining based flow cytometric analysis (reference value: 38 %); type: functional
NB-4 [7] = experiment: Cell cycle arrest in human NB4 cells transfected with pLVX-shRXRalpha plasmid assessed as accumulation of cells at sub-G1 phase at 1 uM incubated for 12 hrs by DAPI staining based flow cytometric analysis (reference value: 10 %); type: functional
NB-4 [8] = experiment: Cell cycle arrest in human NB4 cells assessed as accumulation of cells at G0/G1 phase at 0.5 uM incubated for 24 hrs by DAPI staining based flow cytometric analysis (reference value: 48 %); type: functional
NB-4 [9] = experiment: Cell cycle arrest in human NB4 cells assessed as accumulation of cells at sub-G1 phase at 2 uM incubated for 12 hrs by DAPI staining based flow cytometric analysis (reference value: 3 %); type: functional
NB-4 [10] = experiment: Cell cycle arrest in human NB4 cells assessed as accumulation of cells at sub-G1 phase at 2 uM incubated for 3 hrs by DAPI staining based flow cytometric analysis (reference value: 3 %); type: functional
NB-4 [11] = experiment: Cell cycle arrest in human NB4 cells assessed as accumulation of cells at S phase at 2 uM incubated for 6 hrs by DAPI staining based flow cytometric analysis (reference value: 20 %); type: functional
[12] = Cell cycle arrest in human ATRA-resistant NB4-LR2 cells assessed as accumulation of cells at G0/G1 phase at 2 uM incubated for 6 hrs by DAPI staining based flow cytometric analysis (reference value: 57 %); type: functional
NB-4 [13] = experiment: Cell cycle arrest in human NB4 cells transfected with pLVX-shRXRalpha plasmid assessed as accumulation of cells at G0/G1 phase at 1 uM incubated for 12 hrs by DAPI staining based flow cytometric analysis (reference value: 53 %); type: functional
NB-4 [14] = experiment: Cell cycle arrest in human NB4 cells assessed as accumulation of cells at sub-G1 phase at 2 uM incubated for 24 hrs by DAPI staining based flow cytometric analysis (reference value: 3 %); type: functional
[15] = Cell cycle arrest in human ATRA-resistant NB4-LR2 cells assessed as accumulation of cells at S phase at 2 uM incubated for 6 hrs by DAPI staining based flow cytometric analysis (reference value: 19 %); type: functional
NB-4 [16] = experiment: Cell cycle arrest in human NB4 cells transfected with pLVX-shPML-RARalpha plasmid assessed as accumulation of cells at sub-G1 phase at 2 uM incubated for 12 hrs by DAPI staining based flow cytometric analysis (reference value: 21 %); type: functional
NB-4 [17] = experiment: Cell cycle arrest in human NB4 cells assessed as accumulation of cells at sub-G1 phase at 1 uM incubated for 12 hrs by DAPI staining based flow cytometric analysis (reference value: 2 %); type: functional
NB-4 [18] = experiment: Cell cycle arrest in human NB4 cells transfected with pLVX-shRXRalpha plasmid assessed as accumulation of cells at S phase at 1 uM incubated for 12 hrs by DAPI staining based flow cytometric analysis (reference value: 19 %); type: functional
NB-4 [19] = experiment: Cell cycle arrest in human NB4 cells assessed as accumulation of cells at sub-G1 phase at 1 uM incubated for 24 hrs by DAPI staining based flow cytometric analysis (reference value: 3 %); type: functional
NB-4 [20] = experiment: Cell cycle arrest in human NB4 cells transfected with pLVX-shRXRalpha plasmid assessed as accumulation of cells at sub-G1 phase at 2 uM incubated for 12 hrs by DAPI staining based flow cytometric analysis (reference value: 10 %); type: functional
[21] = Cell cycle arrest in human ATRA-resistant NB4-LR2 cells assessed as accumulation of cells at sub-G1 phase at 2 uM incubated for 12 hrs by DAPI staining based flow cytometric analysis (reference value: 9 %); type: functional
[22] = Cell cycle arrest in human ATRA-resistant NB4-LR2 cells assessed as accumulation of cells at S phase at 1 uM incubated for 24 hrs by DAPI staining based flow cytometric analysis (reference value: 21 %); type: functional
NB-4 [23] = experiment: Cell cycle arrest in human NB4 cells transfected with pLVX-shRNA2-negative control assessed as accumulation of cells at G2/M phase at 1 uM incubated for 12 hrs by DAPI staining based flow cytometric analysis (reference value: 24 %); type: functional
NB-4 [24] = experiment: Induction of apoptosis in human NB4 cells assessed as late apoptotic cells at 1 uM incubated for 24 hrs by Annexin V-FITC/PI staining based flow cytometric analysis (reference value: 2.23 %); type: functional
NB-4 [25] = experiment: Cell cycle arrest in human NB4 cells assessed as accumulation of cells at S phase at 2 uM incubated for 12 hrs by DAPI staining based flow cytometric analysis (reference value: 20 %); type: functional
NB-4 [26] = experiment: Cell cycle arrest in human NB4 cells assessed as accumulation of cells at sub-G1 phase at 0.5 uM incubated for 24 hrs by DAPI staining based flow cytometric analysis (reference value: 3 %); type: functional

## Cc1cc2c(cc1C(=O)/C(Br)=C/c1ccc(C(=O)O)cc1)C(C)(C)CCC2(C)C
NB-4 [1]
  Activity: 40%
NB-4 [2]
  Activity: 11%
Homo sapiens
  Activity: inactive
[3]
  Activity: 48%
[4]
  Kd: 1080 nM
[5]
  Activity: 13%
NB-4 [6]
  Activity: 27%
NB-4 [7]
  Activity: 11%
NB-4 [8]
  Activity: 59%
NB-4 [9]
  Activity: 4%
NB-4 [10]
  Activity: 3%
NB-4 [11]
  Activity: 27%
[12]
  Activity: 45%
NB-4 [13]
  Activity: 36%
NB-4 [14]
  Activity: 9%
[15]
  Activity: 7%
NB-4 [16]
  Activity: 27%
NB-4 [17]
  Activity: 5%
NB-4 [18]
  Activity: 7%
NB-4 [19]
  Activity: 8%
NB-4 [20]
  Activity: 12%
[21]
  Activity: 32%
[22]
  Activity: 18%
NB-4 [23]
  Activity: 54%
NB-4 [24]
  Activity: 18.68%
NB-4 [25]
  Activity: 22%
NB-4 [26]
  Activity: 5%
